experiment: Enzyme-Linked Immunosorbent Assay-ELISA: 96 Well plates were coated with 1 μg/mL of human PD-L1 (obtained from R&D) in PBS overnight at 4° C. The wells were then blocked with 2% BSA in PBS (W/V) with 0.05% TWEEN-20 for 1 hour at 37° C. The plates were washed 3 times with PBS/0.05% TWEEN-20 and the compounds were serial diluted (1:5) in dilution medium and added to the ELISA plates. Human PD-1 and biotin 0.3 μg/mL (ACRO Biosystems) were added and incubated for 1 hour at 37° C. then washed 3 times with PBS/0.05% TWEEN-20. A second block was performed with 2% BSA in PBS (W/V)/0.05% TWEEN-20 for 10 min at 37° C. and was washed 3 times with PBS/0.05% TWEEN-20. Streptavidin—HRP was added for 1 hour at 37° C. then washed 3 times with PBS/0.05% TWEEN-20. TMB substrate was added and reacted for 20 min at 37° C. A stop solution (2 N aqueous H2SO4) was added. The absorbance was read at 450 nm using a micro-plate spectrophotometer.

Compound | IC50
Cc1c(COc2cc3c(cc2Cl)CN[C@H](C(=O)O)CCCCNC(=O)CCCCO3)cccc1-c1ccccc1 | in the range around 300 nM
Cc1c(COc2cc3c(cc2Cl)CN[C@H](C(=O)O)CCCCNC(=O)c2cncc(c2)CO3)cccc1-c1cccc(OCCCCl)c1C | in the range around 10200 nM
Cc1c(COc2cc3c(cc2Cl)CN[C@H](C(=O)O)COCCNC(=O)c2cncc(c2)CO3)cccc1-c1ccccc1 | in the range around 300 nM
Cc1c(COc2cc3c(cc2Cl)CN[C@H](C(=O)O)CCCNC(=O)c2cncc(c2)CO3)cccc1-c1ccccc1 | in the range around 300 nM
Cc1c(COc2cc3c(cc2Cl)CN[C@H](CC(=O)O)CCCCNC(=O)c2cncc(c2)CO3)cccc1-c1ccccc1 | in the range around 300 nM

Continued, values first:

IC50 | Compound
in the range around 300 nM | O=C1NCCCC[C@@H](C(=O)O)NCc2cc(Cl)c(O[C@H]3CCc4c(-c5ccccc5F)cccc43)cc2OCc2cncc1c2
in the range around 10200 nM | Cc1c(COc2cc3c(cc2Cl)CN[C@H](C(=O)O)CCCCNC(=O)c2cncc-3c2)cccc1-c1ccccc1
in the range around 300 nM | Cc1c(COc2cc3c(cc2Cl)CN[C@@H](CO)C(=O)NCCNC(=O)c2cncc(c2)CO3)cccc1-c1ccccc1

Source: ChEMBL document CHEMBL5728659, “Macrocyclic immunomodulators” (2021)
